The results in this text go back to patent US12275731B2, “Azaindole inhibitors of wild-type and mutant forms of LRRK2” (DANA-FARBER CANCER INSTITUTE, INC., priority 2018, dated 2025).

The structures appear in SMILES notation.

Holding throughout (experiment): KinomeScan profiling
What all share (assay type): binding

One assay concerns the target T1, BRSK2 (Homo sapiens, UniProt Q8IWQ3).
T1 sequence (Q8IWQ3 1-736): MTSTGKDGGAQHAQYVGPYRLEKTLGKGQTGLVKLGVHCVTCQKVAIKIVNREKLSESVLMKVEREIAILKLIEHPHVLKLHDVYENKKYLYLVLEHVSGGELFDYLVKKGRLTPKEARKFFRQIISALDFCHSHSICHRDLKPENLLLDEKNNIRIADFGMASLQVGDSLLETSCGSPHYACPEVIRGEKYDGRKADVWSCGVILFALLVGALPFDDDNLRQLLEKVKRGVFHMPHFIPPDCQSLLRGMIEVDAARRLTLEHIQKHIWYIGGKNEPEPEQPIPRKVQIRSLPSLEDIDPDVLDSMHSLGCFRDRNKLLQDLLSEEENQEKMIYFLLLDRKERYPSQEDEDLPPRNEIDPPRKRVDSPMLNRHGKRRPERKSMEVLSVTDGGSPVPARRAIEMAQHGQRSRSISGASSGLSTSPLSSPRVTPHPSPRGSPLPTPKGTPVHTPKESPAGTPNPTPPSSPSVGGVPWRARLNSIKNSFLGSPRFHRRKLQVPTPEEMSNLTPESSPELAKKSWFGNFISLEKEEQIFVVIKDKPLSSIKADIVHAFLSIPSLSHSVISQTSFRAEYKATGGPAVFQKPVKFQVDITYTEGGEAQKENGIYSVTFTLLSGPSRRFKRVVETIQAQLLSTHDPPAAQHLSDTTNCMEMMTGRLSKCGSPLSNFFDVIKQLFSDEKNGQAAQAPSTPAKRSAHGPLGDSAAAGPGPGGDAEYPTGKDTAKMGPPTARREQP
Conditions: BRSK2, 1 μM; read-out: % control. The essentials: (§1)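 At 1 μM in DMSO, compounds are run through a broad 468-member kinase panel. The luminescent read-out is normalised so that vehicle gives 100% and a positive control gives 0%; any kinase falling below 35% is treated as a target.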

The target in the next assay is T2, TNK1 (Homo sapiens, UniProt Q13470).
T2 sequence (Q13470 1-666): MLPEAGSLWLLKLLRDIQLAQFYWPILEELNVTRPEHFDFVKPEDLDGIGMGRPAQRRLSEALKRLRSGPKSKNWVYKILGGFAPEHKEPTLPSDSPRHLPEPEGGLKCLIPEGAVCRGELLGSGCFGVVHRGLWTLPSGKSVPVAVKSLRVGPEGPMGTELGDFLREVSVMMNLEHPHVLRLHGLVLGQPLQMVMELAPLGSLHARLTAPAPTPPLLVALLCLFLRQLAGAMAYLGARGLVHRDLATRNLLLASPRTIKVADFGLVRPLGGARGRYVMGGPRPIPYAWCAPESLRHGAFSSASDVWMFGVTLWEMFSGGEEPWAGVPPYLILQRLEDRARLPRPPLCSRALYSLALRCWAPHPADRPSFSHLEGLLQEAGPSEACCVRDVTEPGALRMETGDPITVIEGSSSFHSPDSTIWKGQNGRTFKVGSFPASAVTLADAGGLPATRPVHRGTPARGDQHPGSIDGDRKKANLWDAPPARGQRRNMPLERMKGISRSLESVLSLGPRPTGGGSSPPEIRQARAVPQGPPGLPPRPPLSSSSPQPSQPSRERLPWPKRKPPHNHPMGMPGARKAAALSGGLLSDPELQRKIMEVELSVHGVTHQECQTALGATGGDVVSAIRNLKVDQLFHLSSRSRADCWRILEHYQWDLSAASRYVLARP
The following applies: TNK1, 1 μM; read-out: % control. A digest of the protocol: as §1

The next assay has as its target T3, SIK (Homo sapiens, UniProt P57059).
T3 construct: purchased KinomeScan® (panel service)
Conditions: read-out: % control. The essentials:
as §1

The target of another assay is T4, AURKC (Homo sapiens, UniProt Q9UQB9).
T4 construct: purchased KinomeScan®
T4 sequence (Q9UQB9 1-309): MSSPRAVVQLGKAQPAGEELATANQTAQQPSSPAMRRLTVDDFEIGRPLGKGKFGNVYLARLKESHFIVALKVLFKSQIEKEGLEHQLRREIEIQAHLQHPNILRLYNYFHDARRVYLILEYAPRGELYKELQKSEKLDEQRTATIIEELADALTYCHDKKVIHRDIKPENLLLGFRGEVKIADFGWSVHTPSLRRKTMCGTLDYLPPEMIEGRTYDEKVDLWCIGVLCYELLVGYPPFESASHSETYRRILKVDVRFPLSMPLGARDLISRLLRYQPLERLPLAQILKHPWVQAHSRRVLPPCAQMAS
Conditions: read-out: % control. The essentials: as §1

In another assay the target is CSNK1G1 (Homo sapiens, UniProt Q9HCP0). Conditions: CSNK1G1, 1 μM; read-out: % control. The essentials: as §1
Chain of CSNK1G1 (Q9HCP0 whole entry): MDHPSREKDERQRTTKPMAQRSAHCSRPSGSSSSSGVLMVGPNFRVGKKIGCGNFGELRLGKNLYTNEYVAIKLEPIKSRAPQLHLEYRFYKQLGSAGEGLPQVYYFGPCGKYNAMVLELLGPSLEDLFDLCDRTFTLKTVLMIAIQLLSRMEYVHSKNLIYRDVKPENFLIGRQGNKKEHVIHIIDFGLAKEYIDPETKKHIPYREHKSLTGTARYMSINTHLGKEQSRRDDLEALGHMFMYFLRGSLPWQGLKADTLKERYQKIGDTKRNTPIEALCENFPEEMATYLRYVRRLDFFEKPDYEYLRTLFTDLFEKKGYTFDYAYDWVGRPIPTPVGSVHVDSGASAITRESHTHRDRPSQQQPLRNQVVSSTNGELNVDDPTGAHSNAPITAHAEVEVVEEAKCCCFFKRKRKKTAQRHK
In assay [1] the target is T5, ABL1(Q252H)-phosphorylated (Homo sapiens, UniProt P00519, Q252H).
T5 construct: purchased KinomeScan®
Conditions: read-out: % control. The essentials: as §1

A further assay addresses T6, GRK3 (Homo sapiens, UniProt P35626).
T6 sequence (P35626 1-688): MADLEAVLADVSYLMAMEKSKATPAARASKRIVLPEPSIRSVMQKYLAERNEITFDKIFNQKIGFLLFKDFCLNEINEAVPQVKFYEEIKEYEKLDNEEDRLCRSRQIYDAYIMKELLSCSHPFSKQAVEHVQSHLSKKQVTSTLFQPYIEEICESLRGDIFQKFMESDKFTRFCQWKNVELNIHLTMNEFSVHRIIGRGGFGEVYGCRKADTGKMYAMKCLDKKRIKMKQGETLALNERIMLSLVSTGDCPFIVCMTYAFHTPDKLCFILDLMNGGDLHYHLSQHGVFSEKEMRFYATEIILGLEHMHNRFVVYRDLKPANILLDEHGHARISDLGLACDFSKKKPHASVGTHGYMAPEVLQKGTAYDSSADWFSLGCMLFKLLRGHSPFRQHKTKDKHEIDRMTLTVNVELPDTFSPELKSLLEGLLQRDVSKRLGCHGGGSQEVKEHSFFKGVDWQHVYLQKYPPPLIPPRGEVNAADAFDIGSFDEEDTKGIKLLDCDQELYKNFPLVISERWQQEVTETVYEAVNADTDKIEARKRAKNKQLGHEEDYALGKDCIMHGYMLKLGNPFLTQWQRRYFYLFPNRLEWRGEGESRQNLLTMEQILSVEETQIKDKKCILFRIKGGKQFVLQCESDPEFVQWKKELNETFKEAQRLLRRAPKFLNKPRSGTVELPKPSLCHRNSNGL
Conditions: GRK3, 1 μM; read-out: % control. A digest of the protocol: as §1

T3 sequence (P57059 whole entry): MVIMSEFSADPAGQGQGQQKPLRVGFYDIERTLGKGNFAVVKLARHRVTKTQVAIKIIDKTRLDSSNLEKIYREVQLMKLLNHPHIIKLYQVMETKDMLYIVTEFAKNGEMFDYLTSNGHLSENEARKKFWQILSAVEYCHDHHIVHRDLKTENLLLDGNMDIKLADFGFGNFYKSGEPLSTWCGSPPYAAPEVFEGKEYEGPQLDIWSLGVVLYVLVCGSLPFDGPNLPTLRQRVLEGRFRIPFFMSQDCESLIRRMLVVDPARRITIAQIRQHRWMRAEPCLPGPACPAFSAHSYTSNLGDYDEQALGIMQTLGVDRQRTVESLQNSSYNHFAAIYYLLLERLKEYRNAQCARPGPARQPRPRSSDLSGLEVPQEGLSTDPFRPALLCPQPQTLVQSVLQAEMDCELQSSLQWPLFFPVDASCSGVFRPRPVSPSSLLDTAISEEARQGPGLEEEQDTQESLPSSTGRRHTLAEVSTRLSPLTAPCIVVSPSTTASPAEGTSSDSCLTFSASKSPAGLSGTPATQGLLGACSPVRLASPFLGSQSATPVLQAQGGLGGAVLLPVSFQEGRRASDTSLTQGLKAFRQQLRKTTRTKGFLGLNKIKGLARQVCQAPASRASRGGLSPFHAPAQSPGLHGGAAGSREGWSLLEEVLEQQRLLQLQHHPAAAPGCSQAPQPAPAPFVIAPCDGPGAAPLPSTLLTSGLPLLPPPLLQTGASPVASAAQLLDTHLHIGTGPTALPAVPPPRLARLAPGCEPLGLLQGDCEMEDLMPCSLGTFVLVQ

On to `CNc1c(-c2cnn([C@H]3CCN(C(C)=O)C[C@@H]3F)c2)cnc2[nH]cc(Cl)c12` [Compound 77, 1-((3S,4S)-4-(4-(3-chloro-4-(methylamino)-1H-pyrrolo[2,3-b]pyridin-5-yl)-1H-pyrazol-1-yl)-3-fluoropiperidin-1-yl)ethan-1-one], for which the remaining binding at 1 µM on BRSK2 was 100%; on TNK1, 80%; at SIK, 94%; at AURKC, 26%; on CSNK1G1, 81%; in assay [1], 95%. Also, the remaining binding at 1 µM on GRK3 amounted to 93%.

On to `CNc1c(-c2ccc(C(=O)N3CCC(N4CCOCC4)CC3)cc2)cnc2[nH]cc(Cl)c12` [Compound 96, (4-(3-chloro-4-(methylamino)-1H-pyrrolo[2,3-b]pyridin-5-yl)phenyl)(4-morpholinopiperidin-1-yl)methanone], for which the remaining binding at 1 µM at BRSK2 is 95%; on TNK1, 83%; at SIK, 87%; at AURKC, 49%; at CSNK1G1, 19%; in assay [1] it was 100%. Besides, the remaining binding at 1 µM at GRK3 worked out at 92%.

On to `O=C(c1ccc(-c2cnc3[nH]cc(Cl)c3c2NC2CCCC2)cc1)N1CCC(N2CCOCC2)CC1` [Compound 101, (4-(3-chloro-4-(cyclopentylamino)-1H-pyrrolo[2,3-b]pyridin-5-yl)phenyl)(4-morpholinopiperidin-1-yl)methanone], for which the remaining binding at 1 µM on BRSK2 came out at 94%; at TNK1, 50%; on SIK, 100%; at AURKC, 71%; at CSNK1G1 it was 92%; in assay [1] it was 100%. At GRK3, the remaining binding at 1 µM is 94%.
